Key:
HDAC = HDAC fluorimetric assay kit (AK-500, Biomol), HeLa nuclear extract; assay type: biochemical; conditions: Fluor de Lys substrate, 1 hour reaction, read-out: HDAC IC50 (grade)
Method: (a) An In Vitro Assay which Determines the Ability of a Test Compound to Inhibit HDAC Enzymatic Activity.
HDAC inhibitors were screened using an HDAC fluorimetric assay kit (AK-500, Biomol, Plymouth Meeting, Pa.). Test compounds were dissolved in dimethylsulphoxide (DMSO) to give a 20 mM working stock concentration. Fluorescence was measured on a WALLAC Victor 2 plate reader and reported as relative fluorescence units (RFU). Data were plotted using GraphPad Prism (v4.0a) and IC50's calculated using a sigmoidal dose response curve fitting algorithm.
Each assay was setup as follows: Defrosted all kit components and kept on ice until use. Diluted HeLa nuclear extract 1:29 in Assay Buffer (50 mM Tris/Cl, pH 8.0, 137 mM NaCl, 2.7 mM KCl, 1 mM MgCl2). Prepared dilutions of Trichostatin A (TSA, positive control) and tested compounds in assay buffer (5× of final concentration). Diluted Fluor de Lys™ Substrate in assay buffer to 100 uM (50 fold=2× final). Diluted Fluor de Lys™ developer concentrate 20-fold (e.g. 50 μl plus 950 μl Assay Buffer) in cold assay buffer. Second, diluted the 0.2 mM Trichostatin A 100-fold in the 1× Developer (e.g. 10 μl in 1 ml; final Trichostatin A concentration in the 1× Developer=2 μM; final concentration after addition to HDAC/Substrate reaction=1 μM). Added Assay buffer, diluted trichostatin A or test inhibitor to appropriate wells of the microtiter plate. Added diluted HeLa extract or other HDAC sample to all wells except for negative controls. Allowed diluted Fluor de Lys™ Substrate and the samples in the microtiter plate to equilibrate to assay temperature (e.g. 25 or 37° C. Initiated HDAC reactions by adding diluted substrate (25 μl) to each well and mixing thoroughly. Allowed HDAC reactions to proceed for 1 hour and then stopped them by addition of Fluor de Lys™ Developer (50 μl). Incubated plate at room temperature (25° C.) for 10-15 min. Read samples in a microtiter-plate reading fluorimeter capable of excitation at a wavelength in the range 350-380 nm and detection of emitted light in the range 440-460 nm.

[1] = system: ER mRNA expression in human ER-negative breast cancer cell lines; conditions: cited from earlier work
[2] = system: gelatinase A (MMP2; Type IV collagenase); conditions: 3T3 cells; cited from earlier work

Row | IC50 (HDAC) [µM] | SMILES | also measured
1 | > 10 | Nc1ccc(C(=O)NCCNCCC(=O)NO)cc1 [Compound 25] | –
2 | > 10 | Nc1ccc(C(=O)NCCNCCC(=O)CCC(=O)NO)cc1 [Compound 28] | –
3 | 0.1 to 1 | Nc1ccc(C(=O)NCCNC(=O)CCCC(=O)NO)cc1 [Compound 29, N-hydroxy-4-(2-(4-aminobenzamido)-ethylcarbamoyl)butanamide] | melting point: 158.9 to 159.8 °C
4 | 1 to 10 | Nc1ccc(C(=O)NCCNC(=O)CCCCC(=O)NO)cc1 [Compound 30] | –
5 | > 10 | CCN(CCNC(=O)c1ccc(N)cc1)C(=O)CCC(=O)NO [Compound 34, N^1-(2-(4-aminobenzamido)ethyl)-N^1-ethyl-N^4-hydroxysuccinamide] | –
6 | 1 to 10 | CCN(CCNC(=O)c1ccc(N)cc1)C(=O)CCCCC(=O)NO [Compound 36, N^1-(2-(4-aminobenzamido)ethyl)-N^1-ethyl-N^6-hydroxyadipamide] | –
7 | – | CC(/C=C/C(=O)NO)=C\[C@@H](C)C(=O)c1ccc(N(C)C)cc1 [TSA, trichostatin A] | increase in ER mRNA expression [1]: 5 fold; mRNA as well as zymographic activity of gelatinase A (MMP2) [2]: decreases
